US12385042B2, “Cell-penetrating peptides” (VECTIOPEP OÜ, priority 2019, dated 2025)
Where a SMILES comes first, the peptide text is derived from it. Bridges are numbered along the chain shown (N, C = ends). Roman numbers before positions name the chains, in order. [ ]: non-standard residue; d: D form. The star is where a group is joined. Arachidoyl = CCCCCCCCCCCCCCCCCCCC(=O)*; Orn = NCCC[C@H](N)C(=O)O

Columns and labels:
[1] = test system: CHO stably expressing green fluorescent protein (GFP); assay: GFP gene downregulation by CPP/siGFP complexes (lysate fluorescence, FACS, confocal); assay type: cell-based
Experimental: (§1) For assessing the siRNA mediated RNAi, CHO-GFP or U87-luc2 cells (5×10^5 cells per well) were seeded on a 24-well plate a day prior to the experiment and grown in serum containing media. On experiment day, prior to adding pre-formed complexes ( 1/10th of the final volume per well), media was replaced with fresh serum containing medium.
(§2) For complex formation, peptide was mixed with luc2 siRNA (sense 5′-[…]-3′ (SEQ ID NO:7), antisense 5′-[…] 3′ (SEQ ID NO:8), Metabion, Germany) or with siRNA against GFP (5′-[…] (SEQ ID NO:9), 3′-[…] (SEQ ID NO:10)) in mQ water (pH 5.3-6.3) using peptide to siRNA molar ratios (MR is the ratio of peptide to siRNA) […] and incubated at RT for 1 h. For siLuc2, the final concentration in media was 25 nM and for siGFP 100 nM. Cells were co-incubated with complexes for 4 h (37° C., 5% CO2), thereafter fresh serum containing media was added and followed by further incubation (20 h for siLuc2 or 44 h for siGFP complexes). Luciferase gene downregulation was measured from cell lysates with Promega luciferase assay system (Promega, Sweden) in combination with GLOMAX 96 microplate luminometer equipped with GLOMAX 1.9.2 software (Promega). GFP was measured after treatment from cell lysates on black 96-well plates by measuring total fluorescence (Symergy MX, BioTek Instruments, USA equipped with Gen5 1.10 software). The results were normalized to the protein content of each sample (DC Protein Assay, BioRad, USA).
For flow cytometry analysis (FACS) analysis CHO-GFP cells were seeded and treated as described previously. After incubation, cells were washed with 1× PBS and detached from plates with trypsin-EDTA (0.25%), and re-suspended in PBS supplemented with FBS (5%) and transferred to transparent U-bottom 96-well plates. FACS was carried out with BD LSR II flow cytometer (BD Biosciences, San Jose, CA, USA) equipped with a 488 nm argon laser. Population of viable cells was determined from scatter plot: forward scattered plot (FSC) vs. side scattered light (SSC) plot. A minimum of 10,000 events from the viable cell population per sample were analyzed using BD FACS Diva software. Results are shown as the population with GFP signal lower than that of 0.1% of untreated cells.
For confocal microscopy 2×10^5 cells per chamber were seeded on NUNC 8-chamber plates. After treatment with complexes (25 ul of pre-formed CPP/siRNA complexes added to cells in 225 ul serum containing media), incubated (48 h) and GFP florescence images of cells were captured using confocal microscope Zeiss LSM 710 and excitation at 488 nm (493-616 filter).

murine red blood cells = assay: Membrane activity assay on murine red blood cells: hemolysis; assay type: cell-based, mouse
Experimental: For evaluation of membrane activity of peptides, hemolysis assay was used. For this whole blood was collected from mouse (adult, BALB/c) saphenous vein into a heparinized collection tube. Blood was centrifuged (2300× g, 15 min) to separate cells (red blood cells-RBC) from the plasma. RBCs were washed according to following procedures.
RBCs were washed with 10 ml 0.9% NaCl saline and centrifuged (600× g, 15 min). Supernatant was discarded after each centrifugation. This was repeated at least 3 times. RBCs were re-suspended in 5 ml saline and distributed equally to tubes and centrifuged (600× g, 15 min). The cells were washed and re-suspended in 2× PBS with the required pH (pH 5.5-7.5). The hemoglobin content in stocks was measured after lysis of cells with equal volume of 0.1% Triton X100 supplemented with 5% glucose. The cell suspension was diluted accordingly for each pH value to obtain similar concentration range of hemoglobin in stocks. To each 100 ul of peptide solution 100 ul of 10% glucose was added, mixed, and equal volume (200 ul) of RBC in 2× PBS were added and gently mixed. Peptide solution with RBCs was incubated at 37° C. for 1 h with gentle mixing (max 300 rpm) after which samples were centrifuged to pellet intact cells from the solution. Hemoglobin from lysed cells was determined from each sample from the supernatant on transparent 96-well plates by measuring the absorbance at 540 nm.
Controls were incubated in similar manner as samples. As a non-hemolysis control mQ supplemented with glucose (0%) was used and for hemolytic control 0.1% TritonX-100 with glucose (100%) was used (cells are suspended in 2× PBS before addition). Final percent was calculated as follows: […]
For hemolytic concentration determination 2× PBS at pH 7.5 was used for incubation and 1× PBS at pH 7.5 was used for washing. Everything else is as described in previous paragraph.

[2] = test system: U87 MG-luc2 human glioma cells, stably expressing luc2; assay: Luciferase gene downregulation by CPP/siRNA (siLuc2) complexes; assay type: cell-based; conditions: for Red (%) (reduction, based on remaining luminescence on U87 cells post-treatment): siRNA against luciferase
Experimental: as §1, §2
Luciferase activity was determined as described in previous paragraph.
For determination of pH dependency on the transfection efficiency, complexes were formed at MR30, incubated and diluted before addition to cells to obtain siRNA final concentration 10 nM in transfection media. HEPES buffer supplemented with 10% FBS was used as transfection media. Complexes were co-incubated with cells for 4 h and then media was replaced with cell growth media. After further 20 h incubation cells were lysed and analyzed as described previously.
The experiment was carried out in serum containing media (10% FBS). CPP/siRNA complexes were formed at different molar ratios with siRNA concentration kept constant (50 nM in transfection media). Luminescence from luciferin-luciferase reaction was measured at 24 hours post-treatment from cell lysate. Results were normalized to protein content and luminescence values from untreated cells (100%).

[3] = Fluorescent dye (PicoGreen) intercalation and heparin displacement assay of CPP/siRNA complexes; assay type: physicochemical; conditions: MR30, no heparin
Experimental: Complexation of siRNA and CPPs was assessed by Quant-iT™ PicoGreen® (PG) (Thermo Fisher Scientific, USA) assay in mQ water. Complexes were prepared as described previously, following addition of diluted PG. For detection, complexes (⅕ of volume), water (3/5) and PG (1/5) working dilution was incubated for 5 minutes and fluorescence was measured by fluorimeter (λex=492 nm, λem=535 nm) (SynergyMx, BioTek). For heparin displacement, instead of water, heparin salt solution at different concentrations were used and complexes incubated at 37° C. for 30 min before addition of PG dilution. Complex formation was also confirmed by gel electrophoresis (details in section 2.11).

Molecule | Red (%) (reduction, based on remaining luminescence on U87 cells post-treatment) ([2]; CPP/siRNA complexes) | also measured
CCCCCCCCCCCCCCCCCCCC(=O)N[C@@H](Cc1c[nH]cn1)C(=O)N[C@@H](Cc1c[nH]cn1)C(=O)N[C@@H](Cc1c[nH]cn1)C(=O)N[C@@H](Cc1c[nH]cn1)C(=O)N[C@@H](Cc1c[nH]cn1)C(=O)N[C@@H](Cc1c[nH]cn1)C(=O)N[C@@H](Cc1ccc(O)cc1)C(=O)N[C@@H](Cc1c[nH]cn1)C(=O)N[C@@H](Cc1c[nH]cn1)C(=O)NCC(=O)NCCC[C@H](N)C(=O)N[C@H](C(=O)N[C@@H](CC(C)C)C(=O)N[C@@H](CC(C)C)C(=O)N[C@@H](CCCCN)C(=O)N[C@@H](C)C(=O)N[C@@H](CC(C)C)C(=O)N[C@@H](CCCCN)C(=O)N[C@@H](C)C(=O)N[C@@H](CC(C)C)C(=O)N[C@@H](C)C(=O)N[C@@H](CCCCN)C(=O)N[C@@H](C)C(=O)N[C@H](C(=O)N[C@@H](CC(C)C)C(N)=O)[C@@H](C)CC)[C@@H](C)CC [NF72] (I: H-[Orn]ILLKALKALAKAIL-NH2 / II: Arachidoyl-HHHHHHYHHG; amide I:1-II:C) | 80 | cells with downregulated reporter gene (GFP signal below threshold), FACS ([1]; CHO-GFP, CPP/siGFP complexes): 40%; GFP signal in confocal images ([1]; live cells treated with CPP/siGFP complexes): higher GFP signal when compared to complexes formed with peptides with less histidines in sequence; HC50 Free peptide (murine red blood cells; free peptide, pH 7.5): >10 µM; hemolytic activity of free peptide (in words) (murine red blood cells; free peptide, up to 10 uM): less hemolytic than that of other peptides; pH dependent hemolytic activity (in words) (murine red blood cells; peptide 0.75 uM, buffer pH 5.5-7.5): almost no effect at physiologic pH, but lysed almost all cells at pH 5.5; luciferase downregulation efficiency (in words) ([2]; CPP/siRNA complexes, comparison between CPPs): significantly less efficient than other compared CPPs; remaining reporter activity ([2]; molar ratio 30 (MR30, peptide to siRNA), untreated cells 100%): 34%; accessibility of siRNA in complexes (dye intercalation) [3]: low accessibility of siRNA
HHHHHHGO^eILLKALKALAKAIL [NF706, C22 fatty acid on N-terminus; C-terminally amidated] | 59 | 
HHHHHHYHHGO^eILLKALKALAKAIL [NF721, group H8; C18 saturated fatty acid on N-terminus; C-terminally amidated] | 55 | 
HHHHHHYHHGO^eILLKALKALAKAIL [NF722, group H8; C22 saturated fatty acid on N-terminus; C-terminally amidated] | 45 | 
HHHHHHYLLGO^eILLKALKALAKAIL [NF707, group H6^2 (histidines before tyrosine); C18 fatty acid on N-terminus; C-terminally amidated] | 70 | 
HHHHHHYLLGO^eILLKALKALAKAIL [NF708, group H6^2 (histidines before tyrosine); C20 fatty acid on N-terminus; C-terminally amidated] | 71 | 
HHHHHHYLLGO^eILLKALKALAKAIL [NF709, group H6^2 (histidines before tyrosine); C22 fatty acid on N-terminus; C-terminally amidated] | 55 | 
HHHHHYHHGO^eILLKALKALAKAIL [NF719, group H7; C18 saturated fatty acid on N-terminus; C-terminally amidated] | 39 | 
HHHHHYHHGO^eILLKALKALAKAIL [NF723, group H7; C20 saturated fatty acid on N-terminus; C-terminally amidated] | 49 | 
HHHHHYHHGO^eILLKALKALAKAIL [NF724, group H7; C22 saturated fatty acid on N-terminus; C-terminally amidated] | 40 | 
HHHHYHHGO^eILLKALKALAKAIL [NF701, group H6; C10 (decanoyl) fatty acid on N-terminus; C-terminally amidated] | 20 | 
HHHHYHHGO^eILLKALKALAKAIL [NF711, group H6; C16 saturated fatty acid on N-terminus; C-terminally amidated] | 35 | 
HHHYHHGO^eILLKALKALAKAIL [NF715, group H5; C18 saturated fatty acid on N-terminus; C-terminally amidated] | 62 | 
HHHYHHGO^eILLKALKALAKAIL [NF718, group H5; C22 saturated fatty acid on N-terminus; C-terminally amidated] | 75 | 
HHYHHGO^eILLKALKALAKAIL [NF712, group H4; C20 saturated fatty acid on N-terminus; C-terminally amidated] | 83 | 
HHYHHGO^eILLKALKALAKAIL [NF713, group H4; C22 saturated fatty acid on N-terminus; C-terminally amidated] | 47 | 
HHYHHGO^eILLKALKALAKAIL [NF717, group H4; C16 saturated fatty acid on N-terminus; C-terminally amidated] | 43 | 
HYHHGO^eILLKALKALAKAIL [NF726, group H3; C20 saturated fatty acid on N-terminus; C-terminally amidated] | 50 | 
